For 6 compounds, EC50 results are on record in patent US11633459B2, “GIP derivatives and uses thereof” (priority 2018, dated 2023).

*1 amine or outer side, *2 acyl side, *3 side chain or, on linkers, in order; H or OH if unused. Where a SMILES comes first, the peptide text is derived from it. Where no end group is shown, it is not given here. Side-chain parts run from the residue outwards. [ ]: non-standard residue; d: D form. The star is where a group is joined. X1 = O=C(O)CCCCCCCCCCCCCCCCCCC(=O)NCC1CCC(C(=O)*)CC1; C18 diacid = O=C(O)CCCCCCCCCCCCCCCCC(=O)*; γGlu = O=C(O)[C@H](CCC(=O)[*:2])N[*:1]; Nle = CCCC[C@H](N)C(=O)O; AEEA = NCCOCCOCC(=O)O; Aib = CC(C)(N)C(=O)O

The target in the assay is T1, human GIP receptor (Homo sapiens, UniProt P48546).
T1 construct: expressed in transfected cells; host or cells: BHK cells (parent line BHKTS13), clone BHK CRE luc2P hGIPR clone #5
T1 sequence (P48546 22-466): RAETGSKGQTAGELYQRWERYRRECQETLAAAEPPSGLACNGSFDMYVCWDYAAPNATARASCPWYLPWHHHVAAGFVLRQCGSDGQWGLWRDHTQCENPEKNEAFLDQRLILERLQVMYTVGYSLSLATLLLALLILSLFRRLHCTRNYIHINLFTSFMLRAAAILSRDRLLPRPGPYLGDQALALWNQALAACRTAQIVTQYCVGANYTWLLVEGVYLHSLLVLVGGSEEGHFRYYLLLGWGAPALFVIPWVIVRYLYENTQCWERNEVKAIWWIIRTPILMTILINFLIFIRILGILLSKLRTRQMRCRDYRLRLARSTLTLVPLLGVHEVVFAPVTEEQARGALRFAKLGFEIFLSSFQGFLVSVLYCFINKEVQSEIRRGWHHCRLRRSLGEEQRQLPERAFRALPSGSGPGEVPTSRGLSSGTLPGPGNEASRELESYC
As to the kind of experiment: In vitro potency, CRE luciferase reporter gene assay, whole BHK cells expressing human GIP receptor. Particulars: 0.2% HSA. In kind it is cell-based. The procedure:
In Vitro Potency (CRE Luciferase; Whole Cells)
The in vitro potency is the measure of human GIP, GLP-1 or glucagon receptor activation, respectively, in a whole cell assay.
In vitro potency was determined by measuring the response of the human GIP, GLP-1 or glucagon receptor in a reporter gene assay in individual cell lines. […] When the respective receptor is activated it results in the production of cAMP, which in turn results in the luciferase protein being expressed. When assay incubation is completed the luciferase substrate (luciferin) is added and the enzyme converts luciferin to oxyluciferin to produce bioluminescence. The luminescence is measured as the readout for the assay.
The cells were derived from a clone containing the CRE luciferase element and were established by further transfection with the respective receptor to obtain the current clone.
The cells were cultured at 5% CO2 in Cell Culture Medium. They were aliquoted and stored in liquid nitrogen. The cells were kept in passage and were seeded out the day before each assay.
The Assay Buffer consisted of 1% ovalbumin and 0.1% Pluronic F-68 in Assay Medium with the addition of human serum albumin at twice the indicated concentrations.
1) Cells were plated at 5000 cells/well and incubated overnight.
2) Cells were washed three times in PBS.
3) Assay Medium (50 μl aliquot) with or without serum albumin was added to each well in the assay plate.
4) Stocks of the test compounds and reference compounds were diluted to a concentration of 0.2 μM in Assay Buffer. […] 8) The cells were washed three times with PBS plus some liquid in each well. 9) A 100 μl aliquot of steadylite plus reagent was added to each well of the assay plate (reagent was light sensitive). 10) Each assay plate was covered with aluminum foil to protect it from light and shaken for 30 min at room temperature. 11) Each assay plate was read in a microtiter plate reader. Calculations and Results
The data from the microtiter plate reader was transferred to GraphPad Prism software. The software performs a non-linear regression (log(agonist) vs response).
A minimum of two replicates was measured for each sample. The reported values are averages of the replicates.
(Reporter assays use an easily measured gene product as a stand-in for the process of interest.)
`CCCC[C@H](NC(=O)[C@H](C)NC(=O)[C@@H](NC(=O)[C@H](CO)NC(=O)[C@H](Cc1ccc(O)cc1)NC(=O)[C@H](CC(=O)O)NC(=O)[C@H](CO)NC(=O)[C@@H](NC(=O)[C@H](Cc1ccccc1)NC(=O)[C@@H](NC(=O)CNC(=O)[C@H](CCC(=O)O)NC(=O)C(C)(C)NC(=O)[C@@H](N)Cc1ccc(O)cc1)[C@@H](C)O)[C@@H](C)CC)[C@@H](C)CC)C(=O)N[C@@H](CC(=O)O)C(=O)N[C@@H](C)C(=O)N[C@H](C(=O)N[C@@H](CCCNC(=N)N)C(=O)N[C@@H](CCC(N)=O)C(=O)N[C@@H](CCC(N)=O)C(=O)N[C@@H](CC(=O)O)C(=O)N[C@@H](Cc1ccccc1)C(=O)N[C@H](C(=O)N[C@@H](CCCCNC(=O)CC[C@H](NC(=O)CC[C@H](NC(=O)CC[C@H](NC(=O)C1CCC(CNC(=O)CCCCCCCCCCCCCCCCCCC(=O)O)CC1)C(=O)O)C(=O)O)C(=O)O)C(=O)N[C@@H](Cc1c[nH]c2ccccc12)C(=O)N[C@@H](CC(C)C)C(=O)N[C@@H](CC(C)C)C(=O)N[C@@H](C)C(=O)N[C@@H](CCC(N)=O)C(=O)N[C@@H](CCCCN)C(=O)NCC(=O)O)C(C)C)[C@@H](C)CC` (stereo partly drawn) [Compound 14, N{Epsilon-24}-[(4S)-4-carboxy-4-[[(4S)-4-carboxy-4-[[(4S)-4-carboxy-4-[[4-[(19-carboxynonadecanoylamino)methyl]cyclohexanecarbonyl]amino]butanoyl]amino]-butanoyl]amino]butanoyl]-[Aib2,Nle14,Ala16,Arg18,Lys24]-hGIP(1-31)] (H-Y[Aib]EGTFISDYSIA[Nle]DAIRQQDFVK([γGlu-γGlu-γGlu-X1])WLLAQKG-OH): the EC50 is 0.266 nM. On to `CCCC[C@H](NC(=O)[C@H](C)NC(=O)[C@@H](NC(=O)[C@H](CO)NC(=O)[C@H](Cc1ccc(O)cc1)NC(=O)[C@H](CC(=O)O)NC(=O)[C@H](CO)NC(=O)[C@@H](NC(=O)[C@H](Cc1ccccc1)NC(=O)[C@@H](NC(=O)CNC(=O)[C@H](CCC(=O)O)NC(=O)C(C)(C)NC(=O)[C@@H](N)Cc1ccc(O)cc1)[C@@H](C)O)[C@@H](C)CC)[C@@H](C)CC)C(=O)N[C@@H](CC(=O)O)C(=O)N[C@@H](CCCCN)C(=O)N[C@H](C(=O)N[C@@H](Cc1c[nH]cn1)C(=O)N[C@@H](CCC(N)=O)C(=O)N[C@@H](CCC(=O)O)C(=O)N[C@@H](CC(=O)O)C(=O)N[C@@H](Cc1ccccc1)C(=O)N[C@H](C(=O)N[C@@H](CCCCNC(=O)CC[C@H](NC(=O)CC[C@H](NC(=O)CC[C@H](NC(=O)CC[C@H](NC(=O)C1CCC(CNC(=O)CCCCCCCCCCCCCCCCCCC(=O)O)CC1)C(=O)O)C(=O)O)C(=O)O)C(=O)O)C(=O)N[C@@H](Cc1c[nH]c2ccccc12)C(=O)N[C@@H](CC(C)C)C(=O)N[C@@H](CC(C)C)C(=O)N[C@@H](C)C(=O)N[C@@H](CCC(N)=O)C(=O)N[C@@H](CCCCN)C(=O)NCC(=O)O)C(C)C)[C@@H](C)CC` (stereo partly drawn) [Compound 21, N{Epsilon-24}-[(4S)-4-carboxy-4-[[(4S)-4-carboxy-4-[[(4S)-4-carboxy-4-[[(4S)-4-carboxy-4-[[4-[(19-carboxynonadecanoylamino)methyl]cyclohexanecarbonyl]amino]butanoyl]-amino]butanoyl]amino]butanoyl]amino]butanoyl]-[Aib2,Nle14,Glu20,Lys24]-hGIP(1-31)] (H-Y[Aib]EGTFISDYSIA[Nle]DKIHQEDFVK([γGlu-γGlu-γGlu-γGlu-X1])WLLAQKG-OH), for which the EC50 was 0.81 nM. `CCCC[C@H](NC(=O)[C@H](C)NC(=O)[C@@H](NC(=O)[C@H](CO)NC(=O)[C@H](Cc1ccc(O)cc1)NC(=O)[C@H](CC(=O)O)NC(=O)[C@H](CO)NC(=O)[C@@H](NC(=O)[C@H](Cc1ccccc1)NC(=O)[C@@H](NC(=O)CNC(=O)[C@H](CCC(=O)O)NC(=O)C(C)(C)NC(=O)[C@@H](N)Cc1ccc(O)cc1)[C@@H](C)O)[C@@H](C)CC)[C@@H](C)CC)C(=O)N[C@@H](CC(=O)O)C(=O)N[C@@H](CCCCN)C(=O)N[C@H](C(=O)N[C@@H](CCCNC(=N)N)C(=O)N[C@@H](CCC(N)=O)C(=O)N[C@@H](CCC(N)=O)C(=O)N[C@@H](CC(=O)O)C(=O)N[C@@H](Cc1ccccc1)C(=O)N[C@H](C(=O)N[C@@H](CCCCNC(=O)COCCOCCNC(=O)COCCOCCNC(=O)CC[C@H](NC(=O)C1CCC(CNC(=O)CCCCCCCCCCCCCCCCCCC(=O)O)CC1)C(=O)O)C(=O)N[C@@H](Cc1c[nH]c2ccccc12)C(=O)N[C@@H](CC(C)C)C(=O)N[C@@H](CC(C)C)C(=O)N[C@@H](C)C(=O)N[C@@H](CCC(N)=O)C(=O)N[C@@H](CCCCN)C(=O)NCC(=O)N[C@@H](CCCCN)C(=O)N[C@@H](CCC(=O)O)C(=O)N[C@@H](CCC(=O)O)C(=O)N[C@@H](CC(=O)O)C(=O)N[C@@H](Cc1c[nH]c2ccccc12)C(=O)N[C@@H](CCCCN)C(=O)N[C@@H](Cc1c[nH]cn1)C(=O)N[C@@H](CC(N)=O)C(=O)N[C@H](C(=O)N[C@H](C(=O)N[C@@H](CCC(N)=O)C(=O)O)[C@@H](C)O)[C@@H](C)CC)C(C)C)[C@@H](C)CC` (stereo partly drawn) [Compound 41, N{Epsilon-24}-[2-[2-[2-[[2-[2-[2-[[(4S)-4-carboxy-4-[[4-[(19-carboxynonadecanoyl-amino)methyl]cyclohexanecarbonyl]amino]butanoyl]amino]ethoxy]ethoxy]acetyl]amino]ethoxy]ethoxy]acetyl]-[Aib2,Nle14,Arg18,Lys24,Glu33,Glu34]-hGIP] registered an EC50 of 0.014 nM. This EC50 lies about 58-fold lower than the previous one. The figure for `CCCC[C@H](NC(=O)[C@H](C)NC(=O)[C@@H](NC(=O)[C@H](CO)NC(=O)[C@H](Cc1ccc(O)cc1)NC(=O)[C@H](CC(=O)O)NC(=O)[C@H](CO)NC(=O)[C@@H](NC(=O)[C@H](Cc1ccccc1)NC(=O)[C@@H](NC(=O)CNC(=O)[C@H](CCC(=O)O)NC(=O)C(C)(C)NC(=O)[C@@H](N)Cc1ccc(O)cc1)[C@@H](C)O)[C@@H](C)CC)[C@@H](C)CC)C(=O)N[C@@H](CC(=O)O)C(=O)N[C@@H](CCCCN)C(=O)N[C@H](C(=O)N[C@@H](CCCNC(=N)N)C(=O)N[C@@H](CCC(N)=O)C(=O)N[C@@H](CCC(N)=O)C(=O)N[C@@H](CC(=O)O)C(=O)N[C@@H](Cc1ccccc1)C(=O)N[C@H](C(=O)N[C@@H](CCCCNC(=O)CC[C@H](NC(=O)CC[C@H](NC(=O)CC[C@H](NC(=O)C1CCC(CNC(=O)CCCCCCCCCCCCCCCCCCC(=O)O)CC1)C(=O)O)C(=O)O)C(=O)O)C(=O)N[C@@H](Cc1c[nH]c2ccccc12)C(=O)N[C@@H](CC(C)C)C(=O)N[C@@H](CC(C)C)C(=O)N[C@@H](C)C(=O)N[C@@H](CCC(N)=O)C(=O)N[C@@H](CCCCN)C(=O)NCC(=O)N[C@@H](CCCCN)C(=O)N[C@@H](CCC(=O)O)C(=O)N[C@@H](CCC(=O)O)C(=O)N[C@@H](CC(=O)O)C(=O)N[C@@H](Cc1c[nH]c2ccccc12)C(=O)N[C@@H](CCCCN)C(=O)N[C@@H](Cc1c[nH]cn1)C(=O)N[C@@H](CC(N)=O)C(=O)N[C@H](C(=O)N[C@H](C(=O)N[C@@H](CCC(N)=O)C(=O)O)[C@@H](C)O)[C@@H](C)CC)C(C)C)[C@@H](C)CC` (stereo partly drawn) [Compound 42, N{Epsilon-24}-[(4S)-4-carboxy-4-[[(4S)-4-carboxy-4-[[(4S)-4-carboxy-4-[[4-[(19-carboxynonadecanoylamino)methyl]cyclohexanecarbonyl]amino]butanoyl]amino]butanoyl]amino]butanoyl]-[Aib2,Nle14,Arg18,Lys24,Glu33,Glu34]-hGIP] is 0.022 nM; for “H-Y[Aib]EGTFISDYSIALDKIHQQDFVK([AEEA-AEEA-γGlu-C18 diacid])WLLAQKGKKNDWKHNITQ [Compound 45, N{Epsilon-24}-[2-[2-[2-[[2-[2-[2-[[(4S)-4-carboxy-4-(17-carboxyheptadecanoylamino)butanoyl]amino]ethoxy]ethoxy]acetyl]amino]ethoxy]ethoxy]acetyl]-[Aib2,Leu14,Lys24]-hGIP]” it is 0.056 nM. Take “H-Y[Aib]EGTFISDYSIA[Nle]DKIHQQDFVK([γGlu-γGlu-γGlu-C18 diacid])WLLAQKGKENDWKHNITQ [Compound 33, N{Epsilon-24}-[(4S)-4-carboxy-4-[[(4S)-4-carboxy-4-[[(4S)-4-carboxy-4-(17-carboxyheptadecanoylamino)butanoyl]amino]butanoyl]amino]butanoyl]-[Aib2,Nle14,Lys24,Glu33]-hGIP]”: the EC50 was 0.0213 nM.

For orientation: EC50 means the concentration needed to bring the measured effect to its halfway point. Lower therefore signals greater potency.
